Here are results for seven compounds from ChEMBL document CHEMBL1201862, “PubChem BioAssay data set” (2004).

Test systems include U-251; SK-MEL-5; NCI-H226; KM-20L2; SK-MEL-2; Malme-3M; NCI-H23; SNB-19; TK-10; 786-0; SW-620; DLD-1; CCRF-CEM; UACC-257; UACC-62; COLO 205; RXF 393; BT-549; T47D; MDA-N.
Common to all, as to assay: growth of human tumour cells (NCI), 48 h

Several values for one entry are separate records, joined by “and”; a condition that tells them apart may be missing. Identical values can stand only once.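 Five compound concentrations were applied to cells in 96-well plates for 48 hours; endpoints were derived by simple linear interpolation of the resulting dose-response curve. GI50: concentration for 50% inhibition of growth.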 Activity calls are given as the source filed them. No stated cut-off is given here; in the data, active = GI50 up to about 1.1 µM and inactive = higher.

With `O/N=C/c1ccc(O)c(O)c1`, the GI50 in the assay on U-251 was 61.7 µM (inactive); with SK-MEL-5 it was 62.8 µM (inactive); in the assay on NCI-H226 it was > 100 µM (inactive); in the assay with KM-20L2, > 100 µM (inactive); with SK-MEL-2, > 100 µM (inactive); with Malme-3M, > 100 µM (inactive). Moreover, the GI50 is > 100 µM (inactive) in the assay with NCI-H23; > 100 µM (inactive) in the assay on SNB-19; > 100 µM (inactive) in the assay on TK-10; > 100 µM (inactive) in the assay on 786-0; 15.4 µM (inactive) in the assay with SW-620; > 100 µM (inactive) in the assay on DLD-1. Further, the GI50 in the assay with CCRF-CEM is 7.38 µM (inactive); in the assay with UACC-257 it was > 100 µM (inactive); with UACC-62, 93.3 µM (inactive); in the assay with COLO 205 it was 55.8 µM (inactive); with RXF 393, > 100 µM (inactive).

For the compound `Cn1cc2ccccc2c1-c1nc(F)nc(Oc2ccc3c(c2)CC[C@@H]2C3CC[C@@]3(C)C2CC[C@@H]3O)n1` (some centres undefined), the GI50 in the assay with U-251 was 6.73 µM (inactive); in the assay on SK-MEL-5, 12.8 µM (inactive); with NCI-H226, 13.5 µM (inactive); with KM-20L2 it was 19.1 µM (inactive); with SK-MEL-2, 4.2 µM (inactive); in the assay with Malme-3M it was 15.5 µM (inactive). In addition, the GI50 with NCI-H23 was 10.3 µM (inactive); with SNB-19 it was 16.6 µM (inactive); in the assay on TK-10 it was 13.7 µM (inactive); in the assay with 786-0 it was 8.91 µM (inactive); in the assay with SW-620, 7.35 µM (inactive); in the assay with DLD-1, 7.16 µM (inactive). In addition, the GI50 in the assay with CCRF-CEM was 3.08 µM (inactive); in the assay with UACC-257, 21.3 µM (inactive); in the assay on UACC-62 it was 17.1 µM (inactive); in the assay with COLO 205 it was 21.8 µM (inactive); with RXF 393, 3.08 µM (inactive).

Regarding `CCOC(=O)c1sc2c(C(=O)OCC)n3ccccc3c2c1N`, the GI50 was 31.8 µM (inactive) in the assay with U-251; > 100 µM (inactive) in the assay on SK-MEL-5; > 10 µM (inactive) in the assay on NCI-H226; > 100 µM (inactive) in the assay with KM-20L2; > 100 µM (inactive) with SK-MEL-2; > 100 µM (inactive) in the assay on Malme-3M. In addition, the GI50 in the assay with NCI-H23 is 43.6 µM (inactive); in the assay on SNB-19 it was 31.7 µM (inactive); in the assay with TK-10, 52.7 µM (inactive); in the assay on 786-0, 36.2 µM (inactive); in the assay on SW-620, > 100 µM (inactive); in the assay on DLD-1, 82.2 µM (inactive). The GI50 with CCRF-CEM was > 100 µM (inactive); in the assay with UACC-257, > 100 µM (inactive); with UACC-62, > 100 µM (inactive); in the assay with COLO 205, > 100 µM (inactive); in the assay on RXF 393, 20.2 µM (inactive).

As to `CC(=O)Nc1ccc(S(=O)(=O)N/N=C/c2cc(I)cc([N+](=O)[O-])c2O)cc1`, the GI50 in the assay with U-251 was 49.4 µM (inactive); in the assay with SK-MEL-5 it was 44 µM (inactive); with NCI-H226, 62.4 µM (inactive); in the assay on KM-20L2, > 100 µM (inactive); in the assay on SK-MEL-2 it was 41.9 µM (inactive); in the assay with Malme-3M, 46.3 µM (inactive). Further, the GI50 in the assay on NCI-H23 is 29.5 µM (inactive); in the assay on SNB-19, 55.3 µM (inactive); with TK-10, > 100 µM (inactive); in the assay with 786-0, > 100 µM (inactive); in the assay with SW-620 it was > 100 µM (inactive); with DLD-1, > 100 µM (inactive). The GI50 is 35.6 µM (inactive) in the assay with CCRF-CEM; > 100 µM (inactive) with UACC-257; 30.3 µM (inactive) in the assay on UACC-62; > 100 µM (inactive) in the assay with COLO 205; 21.5 µM (inactive) in the assay on RXF 393.

Regarding `COC(=O)C1=C(C)C(=O)C2(CCCCCC2C(=O)OC)C1` (centres undefined), the GI50 in the assay with U-251, in the assay with SK-MEL-5, in the assay with NCI-H226, in the assay with KM-20L2, in the assay with SK-MEL-2 and in the assay with Malme-3M was > 100 µM (inactive) in each case. Further, the GI50 in the assay with NCI-H23, in the assay with SNB-19, in the assay with TK-10, in the assay with 786-0, in the assay on SW-620 and in the assay with DLD-1 was > 100 µM (inactive) each time. In addition, the GI50 with CCRF-CEM, in the assay with UACC-257, with UACC-62, in the assay with COLO 205 and in the assay on RXF 393 was > 100 µM (inactive) in each case.

For the compound `CCN(CC)CCCNc1ccc2nc(C)n3c4ccc(O)cc4c(=O)c1c23`, the GI50 in the assay on BT-549 is 12.1 µM (inactive); with T47D, 15.4 µM (inactive); in the assay with U-251 it was 5.36 µM (inactive); in the assay on SK-MEL-5, 10.3 µM (inactive); in the assay with NCI-H226 it was 6.46 µM (inactive); in the assay on KM-20L2, 1.65 µM (inactive). Besides, the GI50 is 6.35 µM (inactive) in the assay on SK-MEL-2; 10.7 µM (inactive) in the assay on Malme-3M; 1.34 µM (inactive) in the assay with NCI-H23; 6.7 µM (inactive) with SNB-19; 7.16 µM (inactive) with TK-10; 1.81 µM (inactive) with 786-0. Further, the GI50 in the assay on SW-620 was 0.957 µM (active); with DLD-1, 1.2 µM (inactive); in the assay on CCRF-CEM it was 1.79 µM (inactive); in the assay with UACC-257, 15.5 µM (inactive); in the assay on UACC-62, 10 µM (inactive); in the assay with COLO 205, 5.18 µM (inactive). Besides, the GI50 in the assay with MDA-N is 7.53 µM (inactive); in the assay on RXF 393, 3.89 µM (inactive).

With `COc1cc(-c2oc3c(OC)c(OC)cc(O)c3c(=O)c2OC)ccc1O` [TERNATIN], the GI50 is 5.01 µM (inactive) in the assay on BT-549; 8.32 µM (inactive) in the assay on T47D; > 100 µM (inactive) in the assay with KM-20L2; 13.1 µM (inactive) and 9.59 µM (inactive) with Malme-3M; 41.6 µM (inactive) and 49.8 µM (inactive) in the assay on SNB-19; 4.84 µM (inactive) and 8.69 µM (inactive) in the assay on TK-10. Besides, the GI50 in the assay on 786-0 is 6.32 µM (inactive) and 12 µM (inactive); with DLD-1 it was 3.7 µM (inactive); in the assay with CCRF-CEM it was 3.38 µM (inactive) and 2.42 µM (inactive); in the assay on UACC-257, > 100 µM (inactive); in the assay on UACC-62 it was 8.39 µM (inactive) and 4.7 µM (inactive); in the assay on COLO 205, > 100 µM (inactive). Also, the GI50 in the assay on MDA-N was 15.2 µM (inactive); in the assay with RXF 393 it was 6.18 µM (inactive) and 3.87 µM (inactive).
